Reference: ChEMBL document CHEMBL3044672, “N9- and N7-(Chloromethyl Phenymethyl)Chloropurine Derivatives from , '-Dichloroxylenes: Synthesis and Anticancer Activity” (2005)

Legend:
Assay type in all cases: functional
[1] = system: IGROV-1; assay: Cytotoxicity against Homo sapiens (human) IGROV1 cells after 48 hr by sulforhodamine B assay; conditions: IGROV-1, 48 h
[2] = system: CCRF-CEM; assay: Cytotoxicity against Homo sapiens (human) CCRF-CEM cells after 48 hr by sulforhodamine B assay
[3] = system: SF-539; assay: Cytotoxicity against Homo sapiens (human) SF539 cells after 48 hr by sulforhodamine B assay; conditions: SF-539, 48 h
[4] = system: DU-145; assay: Cytotoxicity against Homo sapiens (human) DU145 cells after 48 hr by sulforhodamine B assay; conditions: DU-145, 48 h
[5] = system: OVCAR-3; assay: Cytotoxicity against Homo sapiens (human) OVCAR3 cells after 48 hr by sulforhodamine B assay; conditions: OVCAR-3, 48 h
[6] = system: UACC-62; assay: Cytotoxicity against Homo sapiens (human) UACC62 cells after 48 hr by sulforhodamine B assay; conditions: UACC-62, 48 h
[7] = system: HCT-15; assay: Cytotoxicity against Homo sapiens (human) HCT15 cells after 48 hr by sulforhodamine B assay; conditions: HCT-15, 48 h
[8] = system: SK-OV-3; assay: Cytotoxicity against Homo sapiens (human) SKOV3 cells after 48 hr by sulforhodamine B assay; conditions: SK-OV-3, 48 h
[9] = system: T47D; assay: Cytotoxicity against Homo sapiens (human) T47D cells after 48 hr by sulforhodamine B assay
[10] = system: SF-268; assay: Cytotoxicity against Homo sapiens (human) SF268 cells assessed as cell growth at 10^-4 M after 48 hr by […] assay; conditions: SF-268, 48 h, read-out: Activity
[11] = system: PC-3; assay: Cytotoxicity against Homo sapiens (human) PC3 cells after 48 hr by sulforhodamine B assay; conditions: PC-3, 48 h
[12] = system: KM12; assay: Cytotoxicity against Homo sapiens (human) KM12 cells after 48 hr by sulforhodamine B assay; conditions: KM12, 48 h
[13] = system: RXF 393; assay: Cytotoxicity against Homo sapiens (human) RXF393 cells after 48 hr by sulforhodamine B assay; conditions: RXF 393, 48 h
[14] = system: SW-620; assay: Cytotoxicity against Homo sapiens (human) SW620 cells after 48 hr by sulforhodamine B assay; conditions: SW-620, 48 h
[15] = system: SK-MEL-5; assay: Cytotoxicity against Homo sapiens (human) SK-MEL-5 cells after 48 hr by sulforhodamine B assay; conditions: SK-MEL-5, 48 h
[16] = system: EKVX; assay: Cytotoxicity against Homo sapiens (human) EKVX cells after 48 hr by sulforhodamine B assay
[17] = system: HOP-62; assay: Cytotoxicity against Homo sapiens (human) HOP62 cells after 48 hr by sulforhodamine B assay; conditions: HOP-62, 48 h
[18] = system: A498; assay: Cytotoxicity against Homo sapiens (human) A498 cells after 48 hr by sulforhodamine B assay; conditions: A498, 48 h
[19] = system: UO-31; assay: Cytotoxicity against Homo sapiens (human) UO31 cells after 48 hr by sulforhodamine B assay; conditions: UO-31, 48 h
[20] = system: MOLT-4; assay: Cytotoxicity against Homo sapiens (human) MOLT4 cells after 48 hr by sulforhodamine B assay; conditions: MOLT-4, 48 h
[21] = system: HCT-116; assay: Cytotoxicity against Homo sapiens (human) HCT116 cells after 48 hr by sulforhodamine B assay; conditions: HCT-116, 48 h
[22] = system: SK-MEL-2; assay: Cytotoxicity against Homo sapiens (human) SK-MEL-2 cells after 48 hr by sulforhodamine B assay; conditions: SK-MEL-2, 48 h
[23] = system: RPMI-8226; assay: Cytotoxicity against Homo sapiens (human) RPMI8226 cells after 48 hr by sulforhodamine B assay; conditions: RPMI-8226, 48 h
[24] = system: HCC 2998; assay: Cytotoxicity against Homo sapiens (human) HCC2998 cells after 48 hr by sulforhodamine B assay; conditions: HCC 2998, 48 h
[25] = system: OVCAR-4; assay: Cytotoxicity against Homo sapiens (human) OVCAR4 cells after 48 hr by sulforhodamine B assay; conditions: OVCAR-4, 48 h
[26] = system: 786-0; assay: Cytotoxicity against Homo sapiens (human) 786-0 cells after 48 hr by sulforhodamine B assay; conditions: 786-0, 48 h
[27] = system: MDA-MB-231; assay: Cytotoxicity against Homo sapiens (human) MDA-MB-231 cells after 48 hr by sulforhodamine B assay; conditions: MDA-MB-231, 48 h
[28] = system: A549; assay: Cytotoxicity against Homo sapiens (human) A549 cells after 48 hr by sulforhodamine B assay; conditions: A549, 48 h
[29] = system: ACHN; assay: Cytotoxicity against Homo sapiens (human) ACHN cells after 48 hr by sulforhodamine B assay
[30] = system: NCI-H322M; assay: Cytotoxicity against Homo sapiens (human) NCI-H322M cells after 48 hr by sulforhodamine B assay
[31] = system: LOX IMVI; assay: Cytotoxicity against Homo sapiens (human) LOXIMVI cells after 48 hr by sulforhodamine B assay
[32] = system: SF-295; assay: Cytotoxicity against Homo sapiens (human) SF295 cells after 48 hr by sulforhodamine B assay; conditions: SF-295, 48 h
[33] = read-out: LC50 (the source's name)

ClCc1ccccc1Cn1cnc2c(Cl)ncnc21
GI50 [1]: 3.16 µM
LC50 [1]: 55 µM
TGI [1]: 8.91 µM
GI50 [2]: 1.28 µM
TGI [2]: 3.23 µM
CC50 [2, 33]: 8.12 µM
GI50 [3]: 10.7 µM
LC50 (concentration killing 50% of cells) [3]: 55 µM
TGI [3]: 24 µM
GI50 [4]: 5.62 µM
LC50 [4]: > 100 µM
TGI [4]: 34.7 µM
GI50 [5]: 1.41 µM
LC50 [5]: 8.91 µM
TGI [5]: 3.54 µM
GI50 [6]: 3.31 µM
LC50 (concentration causing 50% net cell kill) [6]: 28.2 µM
TGI [6]: 6.6 µM
GI50 [7]: 2.09 µM
TGI [7]: 4.67 µM
CC50 [7, 33]: 43.6 µM
GI50 [8]: 4.17 µM
LC50 [8]: 85.1 µM
TGI [8]: 15.8 µM
GI50 [9]: 17.8 µM
LC50 [9]: > 100 µM
TGI [9]: 61.7 µM
growth at 100 µM [10]: 0%
GI50 [11]: 3.02 µM
LC50 (concentration causing 50% cell kill) [11]: 53.7 µM
TGI [11]: 10.5 µM
GI50 [12]: 16.6 µM
TGI [12]: 33.1 µM
CC50 [12, 33]: 66.1 µM
GI50 [13]: 0.44 µM
TGI [13]: 2.34 µM
CC50 [13, 33]: 7.41 µM
GI50 [14]: 1.77 µM
TGI [14]: 5.01 µM
CC50 [14, 33]: 26.3 µM
GI50 [15]: 1.41 µM
LC50 [15]: 5.88 µM
TGI [15]: 2.88 µM
GI50 [16]: 3.09 µM
TGI [16]: 11 µM
CC50 [16, 33]: 37.1 µM
GI50 [17]: 2.51 µM
TGI [17]: 6.02 µM
CC50 [17, 33]: 19.9 µM
GI50 [18]: 17.4 µM
LC50 (lethal concentration, 50% cell kill) [18]: 58.9 µM
TGI [18]: 32.4 µM
GI50 [19]: 2.63 µM
LC50 (concentration causing 50% net cell kill) [19]: 61.7 µM
TGI [19]: 10.5 µM
GI50 [20]: 1.58 µM
TGI [20]: 5.24 µM
CC50 [20, 33]: > 100 µM
GI50 [21]: 1.9 µM
TGI [21]: 3.71 µM
CC50 [21, 33]: 7.08 µM
GI50 [22]: 2.75 µM
LC50 (concentration killing 50% of cells) [22]: > 100 µM
TGI [22]: 18.2 µM
GI50 [23]: 14.1 µM
TGI [23]: 40.7 µM
CC50 [23, 33]: > 100 µM
GI50 [24]: 1.66 µM
TGI [24]: 3.54 µM
CC50 [24, 33]: 7.41 µM
GI50 [25]: 3.38 µM
LC50 (concentration killing 50% of cells) [25]: 45.7 µM
TGI [25]: 12.3 µM
GI50 [26]: 17.8 µM
LC50 [26]: 83.2 µM
TGI [26]: 38 µM
GI50 [27]: 3.02 µM
LC50 [27]: 45.7 µM
TGI [27]: 7.41 µM
GI50 [28]: 7.76 µM
TGI [28]: 25.7 µM
CC50 [28, 33]: 75.9 µM
GI50 [29]: 2.7 µM
TGI [29]: 6.16 µM
CC50 [29, 33]: 26.9 µM
GI50 [30]: 3.98 µM
TGI [30]: 13.8 µM
CC50 [30, 33]: 43.6 µM
GI50 [31]: 2.13 µM
LC50 [31]: > 100 µM
TGI [31]: 5.24 µM
GI50 [32]: 10.5 µM
TGI [32]: 23.4 µM
CC50 [32, 33]: 51.3 µM
